These results are taken from patent publication US20130029367A1, “COMPOSITIONS AND METHODS FOR MONITORING BREAST CANCER TREATMENT” (Board of Trustees of the University of Arkansas, priority 2003, published 2013).

Data set [1] concerns human gastrointestinal epithelial cell line (CaCo). Description: Cellular uptake of glutamine in CaCo cells (HPLC detection at 340 nm). The class given is in vitro ADME. As to the method:
Distilled, deionized water (107 ml) was added to 207 grams of a dry mixture of sucrose, sorbitol, and glutamine with excipients (Aesgen-14) as listed in Table 1.
Both samples were allowed to stand for 1 day at room temperature. The supernatant was decanted from the residue and used for the cellular uptake determination.
On Day 1, cells from a human gastrointestinal epithelial cell line (CaCo) were plated at a density of 0.5×10^6 cells per well in a 6-well tissue culture dish.
At time points 0, 10, 20, 40, and 60 seconds, the test material was aspirated and the cells washed three times (3×) with chilled (4EC) phosphate buffered saline (PBS), followed by the addition of 1.0 ml of perchloric acid. Cells were harvested by scraping, then aspirated by pipet into a 1.7 ml tube.
The harvested cells were sonicated for 10 seconds, and 500:1 of sonicated cells were transferred into a 1.7 ml tube. The perchloric acid was neutralized by the addition of 130:1 of 2M KHCO3, and the resulting mixture was frozen overnight at −80EC.
Upon thawing, the sample was centrifuged for 10 minutes at 14,000 rpm and the supernatants were transferred to new 1.7 ml tubes and frozen at −80EC. The resulting clarified samples were thawed and diluted 1:3 with deionized water. Fifty microliters were withdrawn, added to 10 microliters complete o-phthaldialdehyde (Sigma P-0532), and mixed by agitation. After incubation for two minutes at room temperature, a 20:1 sample was injected on a Hypersil® C18 Elite 5:m HPLC column using 70:30 acetonitrile:water as the mobile phase. Glutamine levels, measured as :g/ml, were detected at 340 nm.

The subject of data set [2] is radiation injury to normal breast tissue in BCT patients. Description: Phase III pilot study: oral AES-14 vs placebo for radiation injury to the breast in BCT patients. In kind it is in vivo, human. To be noted: at 2 year follow-up. How it is done: This theory was tested in two parts. […] A Phase III pilot study in which 17 patients were randomized to oral AES-14 (30 gm GLN/day, approximately 0.5 gm GLN/kg/day) or placebo from one week prior until one week after radiation therapy (5,000 cGy) was performed. Patients were followed weekly for 7 weeks and every 3 months for 2 years for acute and chronic radiation injury using the RTOG scales, skin biopsy at 0 and 7 weeks, GLN and GSH levels, US, mammogram density, lymphedema, quality of life and performance status.
The RTOG acute radiation morbidity scoring criteria for skin ranges from 0 (no change) to 4 (necrosis). A score of 2 (moist desquamation) was considered failure of treatment. Patients receiving oral AES-14 scored an average of 0.9±0.2, SEM compared to 1.4±0.2 in the placebo group. All patients in the placebo group reached a score of 2 or greater during the first 7 weeks. Two of 8 placebo patients required radiation therapy delay. […] Only 4 of 9 patients in the AES-14 group scored a high of 2, none a 3 (p=0.03 AES-14 vs. placebo, Fisher Exact). At 12 months, 4 of 8 patients in the placebo group complained of pain for which 3 required narcotics, 6 of 8 had significant edema, and 4 of 8 marked increased density and firmness of the radiated breast. […]

The subject of the next data set is 9.29 kDa protein. As to the kind of experiment: SELDI-MS of serum proteins in breast cancer patients on radiation therapy and oral glutamine (AES-14). In kind it is in vivo, human. The source says:
Sixteen breast cancer patients treated with radiation therapy were randomized to receive oral supplemental glutamine (AES-14) or a placebo. Ten of the sixteen women received AES-14 (30 g glutamine per day, approximately 0.5 g glutamine/kg/day) from one week prior to initiating radiation therapy (5,000 cGy) until one week after completing radiation therapy. Six patients received placebo. Serum was collected from each patient before beginning glutamine supplementation (Baseline), at two and four weeks after initiating glutamine supplementation, and one week after stopping glutamine supplementation (Post Treatment in FIG. 1).
Serum proteins from each sample were analyzed by SELDI-MS. Briefly, serum proteins were adhered to the solid substrate of a SELDI chip. The proteins were then desorbed by surface enhanced laser desorption in a SELDI-MS apparatus, and analyzed by mass spectrometry.
SELDI-MS was performed using a Ciphergen (Freemont, Calif.) SELDI PDSII instrument. […] The mass:charge ratio (m/z) of each protein was determined according to a variety of externally calibrated peptide and protein standards. […]
The SELDI-MS procedure analyzed proteins over the m/z ratio ranges of 2-20 and 20-100 kDa.

On to `NC(=O)CC[C@H](N)C(=O)O` [L-glutamine], for which the “mean cellular glutamine uptake” value is listed as 3.53 :g/ml in data set [1] (normal cells, incubation time 0 seconds); 10.30 :g/ml in data set [1] (normal cells, incubation time 10 seconds); 2.48 :g/ml in data set [1] (normal cells, incubation time 20 seconds); 3.23 :g/ml in data set [1] (normal cells, incubation time 40 seconds); 4.85 :g/ml in data set [1] (normal cells, incubation time 60 seconds); 1.33 :g/ml in data set [1] (starved cells (L-glutamine deficient medium), incubation time 0 seconds). For the same compound, the “mean cellular glutamine uptake” value is recorded as 1.43 :g/ml in data set [1] (starved cells (L-glutamine deficient medium), incubation time 10 seconds); 1.49 :g/ml in data set [1] (starved cells (L-glutamine deficient medium), incubation time 20 seconds); 2.23 :g/ml in data set [1] (starved cells (L-glutamine deficient medium), incubation time 40 seconds); 49.96 :g/ml in data set [1] (starved cells (L-glutamine deficient medium), incubation time 60 seconds). The “patients with local recurrence” value in data set [2] is reported as “none”. The “increase in amount of the 9.29 kDa protein” value with 9.29 kDa protein (first two weeks of glutamine supplementation and radiation therapy) is “approximately 3 fold”. Moreover, the “amount of the 9.29 kDa protein after discontinuation” value in the data set on 9.29 kDa protein (within one week following discontinuation of glutamine) is listed as “returned to near the baseline value”.
